Data reported in patent publication US8530459B2, “Swallowtail motifs for imparting water solubility to porphyrinic compounds” (North Carolina State University, priority 2005, dated 2013).

Columns and labels:
Type in all cases: physicochemical
[1] = Solubility in organic solvents
From the text: Reaction of 11a with dimethyl chlorophosphate in anhydrous pyridine gave no 12a, whereas similar reaction with 11b gave a very low yield of 12b. The poor yields are presumably due to the combination of low solubility and low reactivity on the part of the porphyrin-diol starting materials. We assumed that incorporation of the dimethoxyphosphoryl groups at an earlier stage could provide a more efficient process.

[2] = Water-solubility of pure porphyrin in distilled water; settings: thermodynamic from solid; 8-10 mg of pure porphyrin completely dissolved in 300 μL of distilled water; upper limit not determined; read-out: water-solubility (concentration)
Method: Determination of the upper limit of water-solubility was not possible due to the lack of material; however, in each case examined, 8-10 mg of pure porphyrin (14b, 17b, Zn17b, 17a, Zn17a) completely dissolved in 300 μL of distilled water, consistent with a concentration of >20 mM.

[3] = Stability of aqueous porphyrin solutions (naked eye, absorption spectroscopy); settings: for precipitation or aggregation of aqueous solutions: naked eye or absorption spectroscopy; for stability of aqueous solutions: room temperature, shielded from the light
[4] = Stability of porphyrin-phosphate in protic solvent monitored by 1H NMR and LD-MS; settings: mixture of CDCl3/CD3OD
From the text: Porphyrin 12a contains both the bioconjugatable site and the water-solubilizing groups, masked by tert-butyl and methyl esters, respectively. Attempts at the simultaneous removal of the tert-butyl and methyl ester protecting groups with TMS-Br were unsuccessful. […] This compound is identical to 15b (vide infra). […] The following observations were made: • (1) The crude porphyrin-phosphates, while displaying excellent water-solubility initially, precipitated out of solution within minutes. • (2) Because TMS-Br removed some of the zinc, remetalation was attempted with zinc acetate. […] Most (but not all) of the precipitate could be redissolved in concentrated (15 wt %) aqueous NaOH. • (3) When 12b was treated with TMS-Br in the presence of TEA to suppress demetalation,^27 the deprotected porphyrin-diol 11b was not formed until the addition of a protic solvent. During the work-up, 11b formed in quantitative yield, as determined by ^1H NMR spectroscopy and LD-MS [obsd m/z 567, calcd 566 for demetalated (M+H)^+] of the purified sample. • (4) A sample of 12b in a mixture of CDCl3/CD3OD was monitored by ^1H NMR and LD-MS. Within 8 h the formation of porphyrin 11b was almost quantitative (obsd m/z 566, disappearance of phosphate methyl ester singlets). • (5) Basic hydrolysis (H2O/MeOH, NaOH, various concentrations) removed only two of the methyl esters, but none of 11b was formed.

## Zn(II)-5-(4-tert-Butoxycarbonylmethoxyphenyl)-5-(1,5-dihydroxypent-3-yl)-porphyrin [11a]
[1]
  solubility in most organic solvents: only sparingly soluble

## O=P(O)(O)CCC(CCP(=O)(O)O)c1c2nc(cc3ccc([nH]3)c(-c3ccc(Br)cc3)c3nc(cc4ccc1[nH]4)C=C3)C=C2 [17b, 5-(4-Bromophenyl)-15-[1,5-bis(dihydroxyphosphoryl)pent-3-yl]porphyrin]
[2]
  solubility: > 20 mM
[3]
  precipitation or aggregation of aqueous solutions: Neither precipitation nor aggregation was observed
  stability of aqueous solutions: stable for days

## Zn(II)-5-(4-Bromophenyl)-15-(1,5-dihydroxypent-3-yl)porphyrin [11b]
[1]
  solubility in most organic solvents: only sparingly soluble

## Zn(II)-5-(4-Bromophenyl)-15-[1,5-bis(dihydroxyphosphoryl)pent-3-yl]porphyrin [Zn17b]
[3]
  precipitation or aggregation of aqueous solutions: Neither precipitation nor aggregation was observed
  stability of aqueous solutions: stable for days

## O=C(O)COc1ccc(-c2c3nc(cc4ccc([n-]4)c(C(CCP(=O)(O)O)CCP(=O)(O)O)c4nc(cc5ccc2[n-]5)C=C4)C=C3)cc1.[Zn+2] [Zn17a, Zn(II)-5-(4-(Carboxymethoxy)phenyl)-15-[1,5-bis(dihydroxyphosphoryl)pent-3-yl]porphyrin]
[3]
  precipitation or aggregation of aqueous solutions: Neither precipitation nor aggregation was observed
  stability of aqueous solutions: stable for days

## O=P(O)(O)OCCC(CCOP(=O)(O)O)c1c2nc(cc3ccc([nH]3)c(-c3ccc(Br)cc3)c3nc(cc4ccc1[nH]4)C=C3)C=C2 [14b, 5-(4-Bromophenyl)-15-(1,5-bis[dihydroxyphosphoryloxy)pent-3-yl]porphyrin]
[2]
  solubility: > 20 mM
[3]
  precipitation or aggregation of aqueous solutions: Neither precipitation nor aggregation was observed
  stability of aqueous solutions: stable for days

## COP(=O)(OC)OCCC(CCOP(=O)(OC)OC)c1c2nc(cc3ccc([n-]3)c(-c3ccc(Br)cc3)c3nc(cc4ccc1[n-]4)C=C3)C=C2.[Zn+2] [12b, Zn(II)-5-(4-Bromophenyl)-15-[1,5-bis(dimethoxyphosphoryloxy)pent-3-yl]porphyrin]
[4]
  time to almost quantitative formation of porphyrin 11b (loss of phosphate groups): ≤ 8 h

## O=C(O)COc1ccc(-c2c3nc(cc4ccc([nH]4)c(C(CCP(=O)(O)O)CCP(=O)(O)O)c4nc(cc5ccc2[nH]5)C=C4)C=C3)cc1 [17a, 5-(4-(Carboxymethoxy)phenyl)-15-[1,5-bis(dihydroxyphosphoryl)pent-3-yl]porphyrin]
[2]
  solubility: > 20 mM
[3]
  precipitation or aggregation of aqueous solutions: Neither precipitation nor aggregation was observed
  stability of aqueous solutions: stable for days
